One may read the IC50 as the concentration that gives 50% inhibition.

What all share (format): biochemical
For one assay, the target named is T1, LATS1 (Homo sapiens, UniProt O95835).
T1 sequence (O95835 1-1130): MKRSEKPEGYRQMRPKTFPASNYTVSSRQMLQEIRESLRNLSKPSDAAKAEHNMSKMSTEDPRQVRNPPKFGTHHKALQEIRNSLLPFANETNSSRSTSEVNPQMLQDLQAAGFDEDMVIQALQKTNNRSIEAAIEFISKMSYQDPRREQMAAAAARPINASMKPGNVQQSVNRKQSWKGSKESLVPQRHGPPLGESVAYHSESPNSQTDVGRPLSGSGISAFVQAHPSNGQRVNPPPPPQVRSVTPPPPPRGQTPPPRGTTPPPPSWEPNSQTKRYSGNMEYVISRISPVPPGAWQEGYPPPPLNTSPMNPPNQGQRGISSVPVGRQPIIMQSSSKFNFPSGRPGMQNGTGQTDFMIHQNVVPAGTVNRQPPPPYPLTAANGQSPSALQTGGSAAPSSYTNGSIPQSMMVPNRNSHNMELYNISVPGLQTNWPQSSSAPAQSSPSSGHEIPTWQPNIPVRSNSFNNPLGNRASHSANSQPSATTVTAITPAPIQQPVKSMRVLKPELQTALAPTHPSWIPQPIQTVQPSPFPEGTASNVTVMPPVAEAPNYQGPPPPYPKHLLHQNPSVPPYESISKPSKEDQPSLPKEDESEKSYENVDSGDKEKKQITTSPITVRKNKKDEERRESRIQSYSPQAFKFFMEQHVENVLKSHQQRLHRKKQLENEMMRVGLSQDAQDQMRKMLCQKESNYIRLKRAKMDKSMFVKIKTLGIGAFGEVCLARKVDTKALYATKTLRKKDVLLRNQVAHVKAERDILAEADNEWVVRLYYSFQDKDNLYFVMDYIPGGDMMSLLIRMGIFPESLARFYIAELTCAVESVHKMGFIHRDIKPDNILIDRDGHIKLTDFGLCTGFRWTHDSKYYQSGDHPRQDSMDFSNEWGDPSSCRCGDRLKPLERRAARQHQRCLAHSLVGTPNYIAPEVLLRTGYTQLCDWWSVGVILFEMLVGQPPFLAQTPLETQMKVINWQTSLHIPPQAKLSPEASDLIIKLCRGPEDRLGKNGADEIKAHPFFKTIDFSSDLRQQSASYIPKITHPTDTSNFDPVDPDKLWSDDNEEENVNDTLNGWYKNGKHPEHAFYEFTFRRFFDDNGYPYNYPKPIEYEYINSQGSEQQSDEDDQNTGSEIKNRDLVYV
In words: RBC HotSpot kinase assay (33P-ATP, P81 filter-binding), LATS1. Conditions: Table 28, biochemical kinase assay; read-out: LATS1 IC50. A digest of the protocol: (§1)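 Substrate in fresh buffer receives cofactors, then kinase, then compound in DMSO for a 20 min room-temperature preincubation. Reactions start with 33P-ATP and run 2 h; phosphorylation is read by P81 filter binding, and IC50 comes from a 10-point curve.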

The next assay concerns the target T2, LATS2 (Homo sapiens, UniProt Q9NRM7).
T2 sequence (Q9NRM7 1-1088): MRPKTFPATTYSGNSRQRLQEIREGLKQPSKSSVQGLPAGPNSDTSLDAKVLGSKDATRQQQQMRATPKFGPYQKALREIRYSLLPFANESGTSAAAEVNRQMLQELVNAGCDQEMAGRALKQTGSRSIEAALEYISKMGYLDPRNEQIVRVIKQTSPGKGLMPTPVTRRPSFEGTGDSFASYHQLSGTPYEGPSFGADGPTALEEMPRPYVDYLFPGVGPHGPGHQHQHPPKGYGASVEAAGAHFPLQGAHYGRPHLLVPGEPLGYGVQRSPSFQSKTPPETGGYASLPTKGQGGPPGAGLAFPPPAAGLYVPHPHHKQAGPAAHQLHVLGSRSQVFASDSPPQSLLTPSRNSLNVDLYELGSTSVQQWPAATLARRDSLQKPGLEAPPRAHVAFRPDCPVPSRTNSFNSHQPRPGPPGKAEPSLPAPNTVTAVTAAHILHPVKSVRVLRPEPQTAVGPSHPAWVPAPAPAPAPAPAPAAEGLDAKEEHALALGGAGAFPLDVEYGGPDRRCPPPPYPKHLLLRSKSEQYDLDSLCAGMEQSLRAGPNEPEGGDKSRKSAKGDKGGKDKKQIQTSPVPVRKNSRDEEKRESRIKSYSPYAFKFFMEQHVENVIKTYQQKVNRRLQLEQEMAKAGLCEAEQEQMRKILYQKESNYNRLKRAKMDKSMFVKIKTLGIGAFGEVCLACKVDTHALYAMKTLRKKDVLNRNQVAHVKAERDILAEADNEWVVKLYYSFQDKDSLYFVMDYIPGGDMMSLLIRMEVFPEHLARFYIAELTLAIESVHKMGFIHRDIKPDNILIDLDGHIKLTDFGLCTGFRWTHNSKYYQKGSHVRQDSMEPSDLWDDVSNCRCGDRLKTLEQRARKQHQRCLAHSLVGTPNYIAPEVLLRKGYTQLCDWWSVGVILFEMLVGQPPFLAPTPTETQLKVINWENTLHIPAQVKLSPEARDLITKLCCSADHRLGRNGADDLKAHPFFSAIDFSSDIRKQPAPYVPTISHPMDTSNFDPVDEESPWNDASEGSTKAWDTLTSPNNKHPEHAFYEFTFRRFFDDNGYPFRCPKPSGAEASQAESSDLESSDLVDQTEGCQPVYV
In words: RBC HotSpot kinase assay (33P-ATP, P81 filter-binding), LATS2. Conditions: Table 28, biochemical kinase assay; read-out: LATS2 IC50. A digest of the protocol:
as §1

For the next assay, the target named is AKT (Homo sapiens, UniProt P31749). In words: RBC HotSpot kinase assay (33P-ATP, P81 filter-binding), AKT. To be noted: Table 28, biochemical kinase assay; read-out: AKT IC50. A digest of the protocol: as §1
Chain of AKT (P31749 whole entry): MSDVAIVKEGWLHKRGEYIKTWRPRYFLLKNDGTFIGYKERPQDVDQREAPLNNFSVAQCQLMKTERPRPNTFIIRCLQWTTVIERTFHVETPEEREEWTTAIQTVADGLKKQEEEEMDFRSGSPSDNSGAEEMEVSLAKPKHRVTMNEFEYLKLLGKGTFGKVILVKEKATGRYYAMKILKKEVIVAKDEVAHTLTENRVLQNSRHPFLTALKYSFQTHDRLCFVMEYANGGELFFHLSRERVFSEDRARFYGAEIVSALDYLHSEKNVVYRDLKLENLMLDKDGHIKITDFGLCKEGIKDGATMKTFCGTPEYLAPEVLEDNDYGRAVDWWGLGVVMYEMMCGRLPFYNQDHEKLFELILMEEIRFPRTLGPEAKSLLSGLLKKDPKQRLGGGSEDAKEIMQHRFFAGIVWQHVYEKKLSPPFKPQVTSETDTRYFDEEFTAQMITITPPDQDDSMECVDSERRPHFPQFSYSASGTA

Turning to `Fc1c[nH]c2nccc(-c3ccc(C4(C(F)(F)F)CCNCC4)cc3Cl)c12` [Compound 197, 4-(2-chloro-4-(4-(trifluoromethyl)piperidin-4-yl)phenyl)-3-fluoro-1H-pyrrolo[2,3-b]pyridine], the figures for the IC50 at LATS1, on LATS2 and on AKT were 424 nM, 195 nM and 85 nM, respectively.
Taken in the same sequence, the figures for `COC(=O)C1(c2ccc(-c3ccnc4[nH]cc(F)c34)cc2Cl)CCNCC1` [Compound 198, methyl 4-(2-chloro-4-(3-fluoro-1H-pyrrolo[2,3-b]pyridin-4-yl)phenyl)piperidine-4-carboxylate] were 7.4 nM, 10 nM and 124 nM.
Taken in the same sequence, the figures for `CCC1(c2ccc(-c3ccnc4[nH]cc(F)c34)cc2Cl)CCNCC1` [Compound 199, 4-(3-chloro-4-(4-ethylpiperidin-4-yl)phenyl)-3-fluoro-1H-pyrrolo[2,3-b]pyridine] were 38 nM, 34 nM and 463 nM.
Take `CC1(c2ccc(-c3ccnc4[nH]cc(F)c34)cc2Cl)CCNCC1` [Compound 200, 4-(3-chloro-4-(4-methylpiperidin-4-yl)phenyl)-3-fluoro-1H-pyrrolo[2,3-b]pyridine]: the IC50 at LATS1 came to 34 nM; at LATS2 it was 20 nM; at AKT, 12 nM.
On the same counts, the results for `CC(C)c1cc(-c2ccnc3[nH]cc(-c4ccccc4)c23)ccc1CN` [Compound 202, (2-isopropyl-4-(3-phenyl-1H-pyrrolo[2,3-b]pyridin-4-yl)phenyl)methanamine] are 17 nM, 7 nM and 743 nM.
Taken in the same sequence, the figures for `CC(C)(C)Nc1cc(-c2ccnc3[nH]ccc23)ccc1CN` [Compound 203, 2-(aminomethyl)-N-(tert-butyl)-5-(1H-pyrrolo[2,3-b]pyridin-4-yl)aniline] were 70.3 nM, 135 nM and 1380 nM.
Taken in the same sequence, the figures for `Fc1ccccc1CNCc1ccc(-c2ccnc3[nH]ccc23)cc1` [Compound 204, N-(4-(1H-pyrrolo[2,3-b]pyridin-4-yl)benzyl)-1-(2-fluorophenyl)methanamine] were 15.9 nM, 33.1 nM and 1430 nM.
As for `CC(C)(N)c1ccc(-c2ccnc3[nH]ccc23)cc1Cl` [Compound 205, 2-(2-chloro-4-(1H-pyrrolo[2,3-b]pyridin-4-yl)phenyl)propan-2-amine], the IC50 turned out to be 9.5 nM at LATS1, 31.8 nM on LATS2 and 437 nM at AKT.
On the same counts, the results for `CC(C)(N)c1ccc(-c2ccnc3[nH]ccc23)cc1-c1ccccc1` [Compound 206, 2-(5-(1H-pyrrolo[2,3-b]pyridin-4-yl)-[1,1′-biphenyl]-2-yl)propan-2-amine] are 10.2 nM, 74.9 nM and 1620 nM.
Consider `CC(C)(N)c1ccc(-c2ccnc3[nH]cc(Br)c23)cc1-c1ccccc1` [Compound 207, 2-(5-(3-bromo-1H-pyrrolo[2,3-b]pyridin-4-yl)-[1,1′-biphenyl]-2-yl)propan-2-amine], for which the IC50 at LATS1 came out at 4 nM; on LATS2 it was 9.6 nM; at AKT, 267 nM.
Taken in the same sequence, the figures for `CN(C)C(C)(C)c1ccc(-c2ccnc3[nH]cc(F)c23)cc1` [Compound 208, 2-(4-(3-fluoro-1H-pyrrolo[2,3-b]pyridin-4-yl)phenyl)-N,N-dimethylpropan-2-amine] were 8.3 nM, 15 nM and 349 nM.
On the same counts, the results for `CN(C)C(C)(C)c1ccc(-c2ccnc3[nH]ccc23)cc1` [Compound 209, 2-(4-(1H-pyrrolo[2,3-b]pyridin-4-yl)phenyl)-N,N-dimethylpropan-2-amine] are 43 nM, 146 nM and 1250 nM.
Regarding `CC(C)(N)c1ccc(-c2ccnc3[nH]cc(Br)c23)cc1` [Compound 210, 2-(4-(3-bromo-1H-pyrrolo[2,3-b]pyridin-4-yl)phenyl)propan-2-amine], the IC50 was determined as 24 nM at LATS1, 4.7 nM on LATS2 and 331 nM on AKT.
Taken in the same sequence, the figures for `COC(=O)c1c[nH]c2nccc(-c3ccc(C(C)(C)N)cc3)c12` [Compound 212, methyl 4-(4-(2-aminopropan-2-yl)phenyl)-1H-pyrrolo[2,3-b]pyridine-3-carboxylate] were 12 nM, 13 nM and 1250 nM.
Taken in the same sequence, the figures for `COC(=O)c1c[nH]c2nccc(-c3ccc(CN)c(C)c3)c12` [Compound 213, methyl 4-(4-(aminomethyl)-3-methylphenyl)-1H-pyrrolo[2,3-b]pyridine-3-carboxylate] were 7.7 nM, 14.7 nM and 832 nM.
On the same counts, the results for `COC(=O)c1c[nH]c2nccc(-c3ccc(CN)c(-c4ccccc4)c3)c12` [Compound 214, methyl 4-(6-(aminomethyl)-[1,1′-biphenyl]-3-yl)-1H-pyrrolo[2,3-b]pyridine-3-carboxylate] are 11 nM, 24 nM and 986 nM.
Consider `Cc1cc(-c2ccnc3[nH]cc(F)c23)ncc1CN` [Compound 215, (6-(3-fluoro-1H-pyrrolo[2,3-b]pyridin-4-yl)-4-methylpyridin-3-yl)methanamine], for which the IC50 worked out at 4.7 nM on LATS1, 15 nM on LATS2 and 2840 nM on AKT.
On the same counts, the results for `COC(=O)c1c[nH]c2nccc(-c3ccc(CN)c(Cl)c3)c12` [Compound 216, methyl 4-(4-(aminomethyl)-3-chlorophenyl)-1H-pyrrolo[2,3-b]pyridine-3-carboxylate] are 11 nM, 19 nM and 823 nM.
Taken in the same sequence, the figures for `Cc1cc(-c2ccnc3[nH]ccc23)ncc1CN` [Compound 217, (4-methyl-6-(1H-pyrrolo[2,3-b]pyridin-4-yl)pyridin-3-yl)methanamine] were 8.2 nM, 12 nM and 3160 nM.
On the same counts, the results for `NCc1ccc(-c2ccnc3[nH]ccc23)nc1` [Compound 218, (6-(1H-pyrrolo[2,3-b]pyridin-4-yl)pyridin-3-yl)methanamine] are 37 nM, 130 nM and 4930 nM.
